In general, IC50 refers to the concentration that gives 50% inhibition. Higher therefore signals a need for much substance.

The target of test [1] is T1, Prothrombin (Homo sapiens, UniProt P00734). Description: Inhibitory activity against Thrombin.
The next test has as its target Trypsin (Homo sapiens, UniProt P07477+P07478+P35030). Description: Inhibitory activity against trypsin. The test is classed as protein assay.
Test [2] deals with T1, Prothrombin. Description: Inhibition of Thrombin at 300 uM.

Calls of active or inactive are those of the source. The calls are words filed in the database; no cut-off is given here. Some results are limits rather than exact numbers.

As for `COc1cc(C)c(S(=O)(=O)NC[C@@H](O)[C@H](Cc2ccccc2)NCc2cc(Cl)ccc2-n2cnnn2)c(C)c1C`, the IC50 at Prothrombin [1] worked out at 1.4 nM. This lies in the single-digit nanomolar range.

As for `COc1cc(C)c(S(=O)(=O)NC[C@@H](O)[C@H](Cc2ccccc2)NCc2cccc(Cl)c2)c(C)c1C`, the IC50 at Trypsin is above 100000 nM.

On to `NCc1cccc(Cl)c1`, for which the inhibition entry at Prothrombin [2] is “inactive”.

These data come from ChEMBL document CHEMBL1149411, “Application of fragment screening and fragment linking to the discovery of novel thrombin inhibitors” (J Med Chem, 2006).
